Like-named read-outs stand apart in the source and are kept apart here. Each block holds one compound with its values, some of them ahead of it.
What was measured:
MCF7 cells = experiment: Antiproliferative activity, MTT test; assay type: cell-based; settings: Homo sapiens, MTT assay after 72 h exposure
Experimental: A series of synthesized indoline-5-sulfonamides was tested on the MCF7 cancer cell line under normoxia and hypoxia using the MTT test.
The MDR subline K562/4 [77] (kind gift of Dr. Alexander Shtil, Blokhin N.N. National Medical Research Center of Oncology) was obtained by stepwise selection of K562 cells for survival under continuous exposure to Dox. This subline expresses the MDR1 gene and functional P-gp and is characterized by a high resistance index for Dox. […] Cells in the logarithmic phase of growth were used in the experiments. The growth inhibitory activity of compounds was assessed by the MTT test based on the metabolism of the MTT reagent (3-[4,5-dimethylthiazol-2-yl]-2,5-diphenyltetrazolium bromide) (Applichem) in living cells, with modifications as described previously in [49]. Compounds at different concentrations in 100 μL of the appropriate medium were added, and the cells were grown for 72 h. The hypoxia (1% O2) conditions were simulated in Binder multigas incubator, as described in [49]. After incubation with compounds, the medium was removed, the MTT reagent that was dissolved in the medium was added to the final concentration of 0.2 mg/mL to each well, and the incubation was performed for 2 h. Then the cell supernatants were removed, and purple formazan crystals were dissolved in 100% DMSO (350 μL per well). Culture plates were gently shaken, and the absorbance was measured at 571 nm with a reference wavelength of 630 nm on a MultiScan reader (ThermoFisher, Waltham, MA, USA). The viability of the cells was expressed as a percentage of the control. Dose-response curves were analyzed by regression analysis using sigmoid curves (Log(concentration) vs. normalized absorbance).
All results were reported as means ± SD. One-way analysis of variance was used for the analysis of data. Differences were defined as significant at p < 0.05. GraphPad Prism7 (GraphPad Software, San Diego, CA, USA) was used for the determination of the half-maximal inhibitory concentration (IC50) values.

hCA IX = biological target: T1, hCA IX (Homo sapiens, UniProt Q16790); experiment: CA inhibition, stopped-flow CO2 hydration assay; assay type: biochemical; settings: stopped-flow technique; mean from three assays
T1 construct: made in house
Experimental: (§1) The CO2 hydration activity of the four hCA isoforms was monitored using an Applied Photophysics stopped-flow instrument. Phenol red (at a concentration of 0.2 mM) was used as an indicator, working at the absorbance maximum of 557 nm, with 10 mM HEPES (pH 7.4) as a buffer, and 20 mM NaClO4 (for maintaining constant the ionic strength), following the initial rates of the CA-catalyzed CO2 hydration reaction for a period of 10–100 s. To determine the kinetic parameters by Lineweaver-Burk plots and the inhibition constants, a concentration of CO2 between 1.7 to 17 mM was used. At least six measurements of the original 5–10% reaction were used to assess the initial velocity for each inhibitor. The uncatalyzed rates were determined and detracted from the total observed rates. Stock inhibitor solutions (10–100 mM) were prepared in distilled-deionized water, and dilutions up to 0.1 nM were done with the buffer test. […] The inhibition constants were obtained by non-linear least-squares methods using PRISM 6 and the Cheng-Prusoff equation, as reported earlier, and represent the mean from at least three different determinations.

hCA II = biological target: T2, hCA II (Homo sapiens, UniProt P00918); experiment: CA inhibition, stopped-flow CO2 hydration assay; assay type: biochemical; settings: stopped-flow technique; mean from three assays
T2 construct: made in house
Experimental: as §1

hCA XII = biological target: T3, hCA XII (Homo sapiens, UniProt O43570); experiment: CA inhibition, stopped-flow CO2 hydration assay; assay type: biochemical; settings: stopped-flow technique; mean from three assays
T3 construct: made in house
Experimental: as §1

hCA I = biological target: T4, hCA I (Homo sapiens, UniProt P00915); experiment: CA inhibition, stopped-flow CO2 hydration assay; assay type: biochemical; settings: stopped-flow technique; mean from three assays
T4 construct: made in house
Experimental: as §1

[1] = hypoxia (1% O2), read-out: IC50 against MCF7 Cells, Hypoxia
[2] = normoxia, read-out: IC50 against MCF7 Cells, Normoxia

T4 sequence (P00915 whole entry): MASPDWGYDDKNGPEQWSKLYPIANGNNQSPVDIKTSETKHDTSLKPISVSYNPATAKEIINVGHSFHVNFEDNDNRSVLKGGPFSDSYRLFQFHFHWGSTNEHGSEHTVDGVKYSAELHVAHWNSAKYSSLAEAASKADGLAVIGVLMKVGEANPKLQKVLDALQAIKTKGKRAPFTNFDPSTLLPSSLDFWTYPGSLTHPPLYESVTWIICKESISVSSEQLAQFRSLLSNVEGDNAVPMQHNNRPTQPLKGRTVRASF
T3 sequence (O43570 25-354): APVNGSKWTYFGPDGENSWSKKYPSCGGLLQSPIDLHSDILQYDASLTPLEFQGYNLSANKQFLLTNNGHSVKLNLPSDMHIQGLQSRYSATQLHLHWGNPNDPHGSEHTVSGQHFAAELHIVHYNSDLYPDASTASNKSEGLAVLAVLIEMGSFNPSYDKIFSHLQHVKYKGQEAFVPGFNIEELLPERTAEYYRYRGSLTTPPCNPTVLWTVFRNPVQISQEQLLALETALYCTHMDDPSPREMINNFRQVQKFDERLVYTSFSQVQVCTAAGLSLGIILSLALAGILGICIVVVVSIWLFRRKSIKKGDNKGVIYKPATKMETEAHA

SMILES: COc1ccc(C(=O)N2CCc3cc(S(N)(=O)=O)ccc32)c(OC)c1 [Compound 4l, 1-(2,4-Dimethoxybenzoyl)indoline-5-sulfonamide]
- IC50 (MCF7 cells; [1]): > 50000 nM
- IC50 (MCF7 cells; [2]): 37000 ± 3000 nM
- Ki (hCA IX): 203 nM
- Ki (hCA II): 4 nM
- Ki (hCA XII): 113 nM
- Ki (hCA I): 71.5 nM
- melting point: 249 to 251 °C

SMILES: Cc1cccc(C(=O)N2CCc3cc(S(N)(=O)=O)ccc32)c1 [Compound 4i, 1-(3-Methylbenzoyl)indoline-5-sulfonamide]
- IC50 (MCF7 cells; [1]): 43600 ± 4000 nM
- IC50 (MCF7 cells; [2]): > 50000 nM
- Ki (hCA IX): > 10000 nM
- Ki (hCA II): 36.1 nM
- Ki (hCA XII): 93.9 nM
- Ki (hCA I): 220 nM
- melting point: 247 to 249 °C

SMILES: NS(=O)(=O)c1ccc2c(c1)CCN2C(=O)c1ccc(Cl)cc1 [Compound 4g, 1-(4-Chlorobenzoyl)indoline-5-sulfonamide]
- IC50 (MCF7 cells; [1]): 24200 ± 2100 nM
- IC50 (MCF7 cells; [2]): 36500 ± 3300 nM
- Ki (hCA IX): > 10000 nM
- Ki (hCA II): 66.2 nM
- Ki (hCA XII): 57 nM
- Ki (hCA I): 242 nM
- melting point: > 250 °C

SMILES: NS(=O)(=O)c1ccc2c(c1)CCN2C(=O)c1ccccc1 [Compound 4a, 1-Benzoylindoline-5-sulfonamide]
- IC50 (MCF7 cells; [1]): 36900 ± 3500 nM
- IC50 (MCF7 cells; [2]): > 50000 nM
- Ki (hCA IX): > 10000 nM
- Ki (hCA II): 5.4 nM
- Ki (hCA XII): 258 nM
- Ki (hCA I): 79 nM
- melting point: > 250 °C

SMILES: NS(=O)(=O)c1ccc2c(c1)CCN2C(=O)C1CCCC1 [Compound 4s, 1-(Cyclopentanecarbonyl)indoline-5-sulfonamide]
- IC50 (MCF7 cells; [1]): > 50000 nM
- IC50 (MCF7 cells; [2]): > 50000 nM
- Ki (hCA IX): 133 nM
- Ki (hCA II): 7.1 nM
- Ki (hCA XII): 88.1 nM
- Ki (hCA I): 60.9 nM
- melting point: 233 to 235 °C

SMILES: NS(=O)(=O)c1ccc2c(c1)CCN2C(=O)c1c(F)cccc1F [Compound 4d, 1-(2,6-Difluorobenzoyl)indoline-5-sulfonamide]
- IC50 (MCF7 cells; [1]): 35900 ± 3400 nM
- IC50 (MCF7 cells; [2]): > 50000 nM
- Ki (hCA IX): 1330 nM
- Ki (hCA II): 9.1 nM
- Ki (hCA XII): 41.3 nM
- Ki (hCA I): 268 nM
- melting point: 244 to 246 °C

SMILES: NS(=O)(=O)c1ccc2c(c1)CCN2C(=O)c1ccccc1[N+](=O)[O-] [Compound 4o, 1-(2-Nitrobenzoyl)indoline-5-sulfonamide]
- IC50 (MCF7 cells; [1]): 39500 ± 3400 nM
- IC50 (MCF7 cells; [2]): 43700 ± 3700 nM
- Ki (hCA IX): > 10000 nM
- Ki (hCA II): 4.5 nM
- Ki (hCA XII): 120 nM
- Ki (hCA I): 83.4 nM
- melting point: 238 to 240 °C

SMILES: CSc1ccc(C(=O)N2CCc3cc(S(N)(=O)=O)ccc32)cc1 [Compound 4n, 1-(4-(Methylthio)benzoyl)indoline-5-sulfonamide]
- IC50 (MCF7 cells; [1]): > 50000 nM
- IC50 (MCF7 cells; [2]): 18400 ± 1600 nM
- Ki (hCA IX): 1990 nM
- Ki (hCA II): 9.3 nM
- Ki (hCA XII): 91 nM
- Ki (hCA I): 71.4 nM
- melting point: 245 to 247 °C

SMILES: NS(=O)(=O)c1ccc2c(c1)CCN2C(=O)CC1CCCC1 [Compound 4t, 1-(2-Cyclopentylacetyl)indoline-5-sulfonamide]
- IC50 (MCF7 cells; [1]): 36000 ± 3300 nM
- IC50 (MCF7 cells; [2]): 38000 ± 3500 nM
- Ki (hCA IX): 177 nM
- Ki (hCA II): 3.5 nM
- Ki (hCA XII): > 10000 nM
- Ki (hCA I): 51.6 nM
- melting point: 184 to 186 °C

SMILES: COc1cccc(C(=O)N2CCc3cc(S(N)(=O)=O)ccc32)c1 [Compound 4j, 1-(3-Methoxybenzoyl)indoline-5-sulfonamide]
- IC50 (MCF7 cells; [1]): > 50000 nM
- IC50 (MCF7 cells; [2]): 46200 ± 3600 nM
- Ki (hCA IX): > 10000 nM
- Ki (hCA II): 9.2 nM
- Ki (hCA XII): 110 nM
- Ki (hCA I): 67.7 nM
- melting point: 225 to 227 °C

SMILES: NS(=O)(=O)c1ccc2c(c1)CCN2C(=O)c1cccs1 [Compound 4r, 1-(Thiophene-2-carbonyl)indoline-5-sulfonamide]
- IC50 (MCF7 cells; [1]): 39100 ± 3900 nM
- IC50 (MCF7 cells; [2]): 47700 ± 3800 nM
- Ki (hCA IX): 177 nM
- Ki (hCA II): 5 nM
- Ki (hCA XII): 147 nM
- Ki (hCA I): 42.2 nM
- melting point: > 250 °C

Now from value to compound:

- IC50 (MCF7 cells; [1]): 39200 ± 3400 nM
- IC50 (MCF7 cells; [2]): 37100 ± 3500 nM
- Ki (hCA IX): 223 nM
- Ki (hCA II): 1.8 nM
- Ki (hCA XII): > 10000 nM
- Ki (hCA I): 67 nM
- melting point: > 250 °C
SMILES: NS(=O)(=O)c1ccc2c(c1)CCN2C(=O)C1CCCCC1 [Compound 4u, 1-(Cyclohexanecarbonyl)indoline-5-sulfonamide]

- IC50 (MCF7 cells; [1]): 32700 ± 2800 nM
- IC50 (MCF7 cells; [2]): 40600 ± 3800 nM
- Ki (hCA IX): 2250 nM
- Ki (hCA II): 9.5 nM
- Ki (hCA XII): > 10000 nM
- Ki (hCA I): 88.3 nM
- melting point: > 250 °C
SMILES: NS(=O)(=O)c1ccc2c(c1)CCN2C(=O)c1ccc(F)cc1 [Compound 4c, 1-(4-Fluorobenzoyl)indoline-5-sulfonamide]

- IC50 (MCF7 cells; [1]): 34800 ± 3200 nM
- IC50 (MCF7 cells; [2]): 23600 ± 2000 nM
- Ki (hCA IX): > 10000 nM
- Ki (hCA II): 3 nM
- Ki (hCA XII): > 10000 nM
- Ki (hCA I): 41 nM
- melting point: 144 to 146 °C
SMILES: NS(=O)(=O)c1ccc2c(c1)CCN2Cc1ccccc1 [Compound 10, 1-Benzylindoline-5-sulfonamide]

- IC50 (MCF7 cells; [1]): > 50000 nM
- IC50 (MCF7 cells; [2]): > 50000 nM
- Ki (hCA IX): 2390 nM
- Ki (hCA II): 12.5 nM
- Ki (hCA XII): > 10000 nM
- Ki (hCA I): 64 nM
- melting point: > 250 °C
SMILES: NS(=O)(=O)c1ccc2c(c1)CCN2C(=O)c1ccncc1 [Compound 4q, 1-Isonicotinoylindoline-5-sulfonamide]

- IC50 (MCF7 cells; [1]): 39900 ± 3500 nM
- IC50 (MCF7 cells; [2]): 48800 ± 4400 nM
- Ki (hCA IX): 2110 nM
- Ki (hCA II): 42.2 nM
- Ki (hCA XII): 198 nM
- Ki (hCA I): 60.5 nM
- melting point: 247 to 249 °C
SMILES: NS(=O)(=O)c1ccc2c(c1)CCN2C(=O)c1ccc([N+](=O)[O-])cc1 [Compound 4p, 1-(4-Nitrobenzoyl)indoline-5-sulfonamide]

- IC50 (MCF7 cells; [1]): 48700 ± 4500 nM
- IC50 (MCF7 cells; [2]): 35200 ± 3500 nM
- Ki (hCA IX): > 10000 nM
- Ki (hCA II): 54 nM
- Ki (hCA XII): 56 nM
- Ki (hCA I): 350 nM
- melting point: > 250 °C
SMILES: NS(=O)(=O)c1ccc2c(c1)CCN2C(=O)c1ccc(Cl)c(Cl)c1 [Compound 4h, 1-(3,4-Dichlorobenzoyl)indoline-5-sulfonamide]

- IC50 (MCF7 cells; [1]): > 50000 nM
- IC50 (MCF7 cells; [2]): > 50000 nM
SMILES: NS(=O)(=O)c1ccc2c(c1)CCC2NC(=O)c1c(F)c(F)c(F)c(F)c1F (centres unmarked) [Compound 3, reference compound]

- IC50 (MCF7 cells; [1]): > 50000 nM
- IC50 (MCF7 cells; [2]): > 50000 nM
- Ki (hCA IX): 173 nM
- Ki (hCA II): 9.3 nM
- Ki (hCA XII): > 10000 nM
- Ki (hCA I): 77.7 nM
- melting point: 240 to 242 °C
SMILES: COc1ccc(C(=O)N2CCc3cc(S(N)(=O)=O)ccc32)cc1 [Compound 4k, 1-(4-Methoxybenzoyl)indoline-5-sulfonamide]
